Drawing on US9862708B2, “Pyrazolone compounds and uses thereof” (Tempest Therapeutics, Inc., priority 2014, dated 2018), this text covers IC50 for 8 compounds.

Like-named read-outs stand apart in the source and are kept apart here.

What all share (type): cell-based
The target of one assay is T1, human PPARα (Homo sapiens, UniProt Q07869).
T1 construct: host or cells: proprietary non-human mammalian cells
T1 sequence (Q07869 1-468): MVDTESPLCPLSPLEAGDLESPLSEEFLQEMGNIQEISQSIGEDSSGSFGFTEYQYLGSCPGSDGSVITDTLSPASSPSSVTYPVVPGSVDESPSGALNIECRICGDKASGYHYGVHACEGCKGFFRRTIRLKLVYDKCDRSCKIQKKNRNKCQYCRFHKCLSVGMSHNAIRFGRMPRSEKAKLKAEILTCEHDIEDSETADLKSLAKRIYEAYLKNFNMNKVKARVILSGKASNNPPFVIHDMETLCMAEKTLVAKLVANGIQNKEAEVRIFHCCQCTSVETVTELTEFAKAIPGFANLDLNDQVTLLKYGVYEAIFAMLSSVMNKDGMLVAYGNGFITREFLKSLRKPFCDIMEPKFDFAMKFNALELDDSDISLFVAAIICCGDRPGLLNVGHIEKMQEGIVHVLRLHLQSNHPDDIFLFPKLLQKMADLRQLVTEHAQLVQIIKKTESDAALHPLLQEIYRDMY
The experiment in a line: Human PPARα Reporter Assay (luciferase, Indigo Biosciences). The method, then: Human PPARα Reporter Assay
The screening of test compounds for agonist or antagonist activities against human PPARα receptors was performed using a commercial kit, Human PPARα Reporter Assay System (Indigo Biosciences, Cat. #IB00111).
This nuclear receptor assay system utilizes proprietary non-human mammalian cells engineered to provide constitutive, high-level expression of Human PPARα. Because these cells incorporate a PPARα-responsive luciferase reporter gene, quantifying expressed luciferase activity provides a sensitive surrogate measure of PPARα activity in the treated cells. The primary application of this reporter assay system is in the screening of test samples to quantify any functional activity, either agonist or antagonist, that they may exert against human PPARα.
Briefly, reporter cells are dispensed into wells of the assay plate and then immediately dosed with test compounds. Following an overnight incubation, the treatment media is discarded and Luciferase Detection Reagent (LDR) is added. The intensity of light emission from the ensuing luciferase reaction provides a sensitive measure that is directly proportional to the relative level of PPARα activation in the reporter cells.

In the next assay the target is T2, Estrogen Receptor β (Homo sapiens, UniProt Q92731).
T2 construct: host or cells: engineered reporter cells of the kit
T2 sequence (Q92731 whole entry): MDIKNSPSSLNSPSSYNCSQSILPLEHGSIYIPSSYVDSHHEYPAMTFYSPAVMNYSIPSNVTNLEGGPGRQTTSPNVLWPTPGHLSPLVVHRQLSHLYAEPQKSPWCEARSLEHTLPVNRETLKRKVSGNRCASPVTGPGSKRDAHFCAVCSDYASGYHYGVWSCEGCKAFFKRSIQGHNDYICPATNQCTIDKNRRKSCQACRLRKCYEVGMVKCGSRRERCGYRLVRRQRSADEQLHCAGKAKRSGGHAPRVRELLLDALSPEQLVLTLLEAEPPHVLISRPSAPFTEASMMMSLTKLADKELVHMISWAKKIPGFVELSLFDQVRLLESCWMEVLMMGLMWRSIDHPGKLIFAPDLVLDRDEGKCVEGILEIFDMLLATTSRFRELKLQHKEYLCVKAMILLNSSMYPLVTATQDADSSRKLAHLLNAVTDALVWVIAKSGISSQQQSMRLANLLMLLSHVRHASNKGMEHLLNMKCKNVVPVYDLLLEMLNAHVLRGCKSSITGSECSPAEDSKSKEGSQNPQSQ
As to the kind of experiment: Estrogen Receptor β reporter counterscreen (Indigo Biosciences kit). As to conditions: receptor agonist at ~EC80 for antagonist potency. As for the experimental part: (§1) To determine species selectivity, a Mouse PPARα Reporter Assay System was used (Indigo Biosciences, Cat. #M00111). Activity of test compounds to antagonize or agonize other isoforms of human PPAR, for example β/δ and γ, were assessed using the corresponding kits from Indigo Biosciences (Cat. #IB00121 and #IB00101, respectively). In addition to PPAR activity, compounds were also screened for activity against other nuclear hormone receptors including Estrogen Receptor β, Glucocorticoid Receptor and Thyroid Receptor β using commercially available kits (Indigo Biosciences, Cat. #IB00411, IB00201 and IB01101, respectively). Each assay system from Indigo Biosciences uses technology analogous to the human
(§2) PPARα kit, with the variance being that the cells used for each assay were engineered to over-express the receptor of interest. In addition, the appropriate receptor agonist (included with each kit) was used at ˜EC80 for assays in which antagonist potency was being assessed.
Background: A counterscreen serves to expose hits that act by an unwanted route or on another target.

A further assay addresses T3, Glucocorticoid Receptor (Homo sapiens, UniProt P04150).
T3 construct: host or cells: engineered reporter cells of the kit
T3 sequence (P04150 1-777): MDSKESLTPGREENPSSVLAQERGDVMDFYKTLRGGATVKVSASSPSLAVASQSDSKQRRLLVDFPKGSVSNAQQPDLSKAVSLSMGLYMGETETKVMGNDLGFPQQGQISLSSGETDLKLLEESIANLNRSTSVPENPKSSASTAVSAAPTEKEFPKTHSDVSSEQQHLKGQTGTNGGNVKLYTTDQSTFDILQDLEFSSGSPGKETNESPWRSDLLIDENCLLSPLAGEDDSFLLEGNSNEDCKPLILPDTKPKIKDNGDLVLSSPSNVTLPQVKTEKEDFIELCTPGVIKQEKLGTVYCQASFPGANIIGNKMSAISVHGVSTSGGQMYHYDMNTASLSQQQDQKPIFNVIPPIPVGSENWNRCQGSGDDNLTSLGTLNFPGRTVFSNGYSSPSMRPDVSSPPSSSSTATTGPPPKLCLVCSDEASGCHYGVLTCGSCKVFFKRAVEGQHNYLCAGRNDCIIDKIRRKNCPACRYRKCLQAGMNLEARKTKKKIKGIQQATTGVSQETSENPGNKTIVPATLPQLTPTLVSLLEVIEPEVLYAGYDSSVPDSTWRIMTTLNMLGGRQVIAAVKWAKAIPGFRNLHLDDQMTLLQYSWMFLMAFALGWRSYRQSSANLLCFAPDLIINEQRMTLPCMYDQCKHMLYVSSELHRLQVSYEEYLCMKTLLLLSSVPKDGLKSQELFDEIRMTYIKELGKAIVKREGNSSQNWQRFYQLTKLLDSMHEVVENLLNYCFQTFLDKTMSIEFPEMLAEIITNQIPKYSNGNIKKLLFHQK
As to the kind of experiment: Glucocorticoid Receptor reporter counterscreen (Indigo Biosciences kit). As to conditions: receptor agonist at ~EC80 for antagonist potency. The method, then:
as §1, §2

In another assay the target is T4, PPAR gamma (Homo sapiens, UniProt P37231).
T4 construct: host or cells: engineered reporter cells of the kit (analogous to the PPARα kit: non-human mammalian)
T4 sequence (P37231 1-505): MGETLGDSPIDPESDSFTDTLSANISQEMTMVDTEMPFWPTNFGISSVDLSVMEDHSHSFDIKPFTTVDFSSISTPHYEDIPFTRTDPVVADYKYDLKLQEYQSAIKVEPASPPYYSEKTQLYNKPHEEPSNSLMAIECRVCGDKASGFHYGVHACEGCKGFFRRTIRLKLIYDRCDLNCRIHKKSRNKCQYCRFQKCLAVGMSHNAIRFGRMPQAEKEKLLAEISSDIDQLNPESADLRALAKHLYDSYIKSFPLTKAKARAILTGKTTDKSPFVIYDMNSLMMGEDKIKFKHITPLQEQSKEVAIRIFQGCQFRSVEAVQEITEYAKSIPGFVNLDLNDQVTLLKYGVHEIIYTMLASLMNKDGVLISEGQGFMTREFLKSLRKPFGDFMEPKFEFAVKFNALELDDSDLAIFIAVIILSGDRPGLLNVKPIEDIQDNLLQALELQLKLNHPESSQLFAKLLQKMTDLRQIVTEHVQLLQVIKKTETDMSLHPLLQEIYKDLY
As to the kind of experiment: PPAR γ reporter counterscreen (Indigo Biosciences kit). The conditions noted are these: receptor agonist at ~EC80 for antagonist potency. The method, then:
as §1, §2

Another assay addresses T5, Thyroid Receptor β (Homo sapiens, UniProt P10828).
T5 construct: host or cells: engineered reporter cells of the kit
T5 sequence (P10828 1-461): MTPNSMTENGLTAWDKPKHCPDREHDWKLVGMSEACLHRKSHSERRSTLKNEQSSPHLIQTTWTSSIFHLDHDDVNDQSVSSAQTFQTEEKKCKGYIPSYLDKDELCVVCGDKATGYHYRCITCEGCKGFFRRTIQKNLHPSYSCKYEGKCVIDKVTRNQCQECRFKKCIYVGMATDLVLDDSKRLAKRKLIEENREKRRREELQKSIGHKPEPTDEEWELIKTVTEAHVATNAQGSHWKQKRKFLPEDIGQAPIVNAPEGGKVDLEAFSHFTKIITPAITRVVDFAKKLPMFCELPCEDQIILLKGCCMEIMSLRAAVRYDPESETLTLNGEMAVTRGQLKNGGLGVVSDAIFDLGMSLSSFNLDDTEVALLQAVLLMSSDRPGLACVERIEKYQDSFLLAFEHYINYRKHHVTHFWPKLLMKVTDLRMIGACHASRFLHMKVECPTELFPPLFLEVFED
The experiment in a line: Thyroid Receptor β reporter counterscreen (Indigo Biosciences kit). The conditions noted are these: receptor agonist at ~EC80 for antagonist potency. As for the experimental part:
as §1, §2

In the next assay the target is T6, PPAR beta/delta (Homo sapiens, UniProt Q03181).
T6 construct: host or cells: engineered reporter cells of the kit (analogous to the PPARα kit: non-human mammalian)
T6 sequence (Q03181 1-441): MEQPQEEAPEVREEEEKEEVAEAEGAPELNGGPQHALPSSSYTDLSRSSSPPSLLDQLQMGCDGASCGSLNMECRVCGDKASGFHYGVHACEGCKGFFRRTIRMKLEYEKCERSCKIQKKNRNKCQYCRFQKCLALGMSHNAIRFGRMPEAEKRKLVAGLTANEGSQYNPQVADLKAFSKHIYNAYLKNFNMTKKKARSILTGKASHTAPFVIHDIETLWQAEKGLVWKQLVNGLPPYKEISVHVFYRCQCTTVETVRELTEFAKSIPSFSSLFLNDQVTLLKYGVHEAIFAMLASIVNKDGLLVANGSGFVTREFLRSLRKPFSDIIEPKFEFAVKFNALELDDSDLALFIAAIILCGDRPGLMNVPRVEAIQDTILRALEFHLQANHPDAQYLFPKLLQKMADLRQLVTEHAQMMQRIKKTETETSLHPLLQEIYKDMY
The experiment in a line: PPAR β/δ reporter counterscreen (Indigo Biosciences kit). The conditions noted are these: receptor agonist at ~EC80 for antagonist potency. The method, then: as §1, §2

The mark [1] stands for this setting: antagonism, luciferase reporter cells, overnight incubation, read-out: PPARα IC50.

By IC50 is commonly meant the concentration that gives 50% inhibition.

Consider `CC(C)(CNC(=O)c1ccccc1)Oc1ccc(CCCC2=NN(c3ccc(C(F)(F)F)cc3)C(=O)C23CCCC3)cc1` [Example 47, N-(2-methyl-2-(4-(3-(4-oxo-3-(4-(trifluoromethyl)phenyl)-2,3-diazaspiro[4,4]non-1-en-1-yl)propyl)phenoxy)propyl)benzamide], for which the IC50 at human PPARα (setting [1]) turned out to be 580 nM.
As to `CC1(C)C(=O)N(c2ccc(C(F)(F)F)cc2)N=C1CCCc1ccc(OC(C(=O)O)c2ccccc2)cc1` (centres unmarked) [Example 48, 2-(4-(3-(4,4-dimethyl-5-oxo-1-(4-(trifluoromethyl)phenyl)-4,5-dihydro-1H-pyrazol-3-yl)propyl)phenoxy)-2-phenylacetic acid], the IC50 on human PPARα (setting [1]) came out at 4.7 nM.
Take `CC1(C)C(=O)N(c2ccc(C(F)(F)F)cc2)N=C1CCCc1ccc(OCC(=O)O)cc1` [Example 49, 2-(4-(3-(4,4-dimethyl-5-oxo-1-(4-(trifluoromethyl)phenyl)-4,5-dihydro-1H-pyrazol-3-yl)propyl)phenoxy)acetic acid]: the IC50 at human PPARα (setting [1]) is 54 nM.
For `CC1(C)C(=O)N(c2ccc(C(F)(F)F)cc2)N=C1CCCc1ccc(OC2(C(=O)O)CCC2)cc1` [Example 50, 1-(4-(3-(4,4-dimethyl-5-oxo-1-(4-(trifluoromethyl)phenyl)-4,5-dihydro-1H-pyrazol-3-yl)propyl)phenoxy)cyclobutanecarboxylic acid], the IC50 at human PPARα (Target Selectivity - Counterscreen table, read-out: PPAR alpha IC50) stood at 2.4 nM; at human PPARα (setting [1]) it was 2.4 nM; at Estrogen Receptor β, 36000 nM; at Glucocorticoid Receptor, 36000 nM; at PPAR gamma, 56000 nM; on Thyroid Receptor β it was 61000 nM. The compound further yielded an IC50 on PPAR beta/delta of 22000 nM.
Turning to `CC1(C)C(=O)N(c2cccc(C(F)(F)F)c2)N=C1CCCc1ccc(OC2(C(=O)O)CCC2)cc1` [Example 51, 1-(4-(3-(4,4-dimethyl-5-oxo-1-(3-(trifluoromethyl)phenyl)-4,5-dihydro-1H-pyrazol-3-yl)propyl)phenoxy)cyclobutanecarboxylic acid], at human PPARα (setting [1]), the IC50 amounted to 58 nM.
Consider `CC1(C)C(=O)N(c2ccc(C(F)(F)F)cc2)N=C1CCCc1ccc(OC2(C(=O)O)CCCC2)cc1` [Example 52, 1-(4-(3-(4,4-dimethyl-5-oxo-1-(4-(trifluoromethyl)phenyl)-4,5-dihydro-1H-pyrazol-3-yl)propyl)phenoxy)cyclopentanecarboxylic acid], for which, at human PPARα (setting [1]), the IC50 amounted to 4.1 nM.
Same read-out and setting: the result for `CCOc1ccc(-c2ccc(CCCC3=NN(Cc4ccc(C(C)(C)C)cc4)C(=O)C3(C)C)cc2)cc1CC(=O)O` [Example 55, 2-(4′-(3-(1-(4-(tert-butyl)benzyl)-4,4-dimethyl-5-oxo-4,5-dihydro-1H-pyrazol-3-yl)propyl)-4-ethoxy-[1,1′-biphenyl]-3-yl)acetic acid] reads 110 nM.
On the same count and under the same terms, the result for `COc1ccc(-c2ccc(CCCC3=NN(Cc4ccc(C(C)(C)C)cc4)C(=O)C3(C)C)cc2)nc1NS(=O)(=O)c1ccccc1` [Example 59, N-(6-(4-(3-(1-(4-(tert-butyl)benzyl)-4,4-dimethyl-5-oxo-4,5-dihydro-1H-pyrazol-3-yl)propyl)phenyl)-3-methoxypyridin-2-yl)benzenesulfonamide] reads 10 nM.
